Experimental data taken from patent publication US9629816B2, “Small molecule therapeutic compounds targeting thioesterase deficiency disorders and methods of using the same” (The United States of America, as represented by the …, priority 2011, dated 2017).

Legend:
INCL fibroblasts = experiment: MTT viability of cultured INCL fibroblasts; type: cell-based, human; settings: 48 hours of treatment; viability as percent of untreated control (FIG. 4A-C)
Protocol: Ten out of the twelve HA-derivative compounds listed in Table 1 were tested to determine whether they adversely affected the viability of cultured cells from INCL patients. […] Briefly, following treatment with HA-derivatives INCL cells were incubated with Thiazolyl Blue Tetrazolium […] for 4 hours at 37° C. Formazan crystals thus formed were dissolved in acidified isopropanol and absorption was measured at 570 nm. Viability was expressed as percent of untreated control.
Briefly, normal fibroblasts (GM 00498) were obtained from the Coriell Institute of Medical Research, USA. PPT1-deficient INCL fibroblasts were isolated from skin biopsy samples of INCL patients admitted to an ongoing clinical protocol (#01-CH-0086) approved by the Institutional Review Board (IRB) of the National Institute of Child Health and Human Development (NICHD) at the National Institute of Health (NIH). […] The fibroblasts were cultured in the presence or absence of varying concentrations of each of the HA-derivatives for 48 hours, after which the viability of the cells was determined using the MTT-Cell Viability Assay by T. Mossman, (Rapid colorimetric assay for cellular growth and survival. J. Immunol. Method. 65 (1983) 55-63).

PPT1-KO mice [1] = experiment: TEM analysis of GRODs in brain cells of PPT1-KO mice; type: in vivo, mouse; settings: PPT1-KO mice treated from 3 to 6 months of age, 1 mM in drinking water (FIG. 12)
Protocol: (§1) All animal experiments were performed according to the institutional guidelines after an animal protocol was approved by the Animal Care and Use Committee of the National Institute of Child Health and Development, National Institutes of Health. PPT1-KO mice (a gift from Dr. S. L. Hofmann, University of Texas Southwestern Medical Center at Dallas, Dallas, Tex., USA) were generated by targeted disruption of the last exon in the PPT1 gene in embryonic stem (ES) cells. These mice were subsequently backcrossed for 10 generations with wild type C57BL/6 mice in order to obtain congenic C57 background and a breeding pair was provided by Dr. Mark Sands to start the inventors' colony. Animals were housed and maintained in a pathogen-free facility. Three-month old PPT-KO mice were given NtBuHA in their drinking water (1 mM NtBuHA and 1 mM NaCl).
Cortical tissue sections were prepared from wild-type mice and untreated- as well as NtBuHA-treated PPT1-KO littermates. Cortical tissues (approximately 1 mm^3) were dissected from those animals, fixed in 2.5% glutaradlehyde in 0.1M sodium cacodylate buffer, pH 7.4 followed by three washing in 0.1 M sodium cacodylate buffer at room temperature. […]

INCL lymphoblasts = experiment: H2O2-induced apoptosis in INCL lymphoblasts (annexin V, FACS); type: cell-based, human; settings: 1 mM NtBuHA 12 hours
Protocol: To evaluate whether NtBuHA protects against oxidative stress-induced apoptosis in INCL lymphoblasts the cells were treated with 1 mM NtBuHA for 12 hours and then incubated with 500 μM H2O2 for 3 hours in presence or absence of NtBuHA (1 mM). Untreated INCL lymphoblasts were also treated with H2O2 for 3 hours. For the detection of apoptosis the cells were stained with annexin V using Apoptosis detection kit (Biovision) and analyzed by FACS (Guava EasyCyte Mini System, Millipore).
Moreover, in these cells antisense-mediated inhibition of PPT1 leads to increased apoptosis. […] In addition, increased neuronal apoptosis in the brain of PPT1-KO mice has also been reported. […] Thus, the inventors sought to determine whether the NtBuHA-treatment protects cultured immortalized INCL lymphoblasts from oxidative-stress mediated apoptosis. Cultured lymphoblasts from INCL patients were chosen because PPT1 is expressed in all tissues and PPT 1-deficiency in cultured lymphoblasts and fibroblasts from INCL patients show virtually identical pathological changes (accumulation of ceroid, GRODs and increased apoptosis) as are found in postmortem neuronal tissues from such patients. […] Apoptosis of the H2O2-treated cells was then quantitated by florescence activated cell sorting (FACS) analysis.

PPT1-KO mice [2] = experiment: Survival of PPT1-KO mice; type: in vivo, mouse; settings: 5.5 months after initiation; treatment from 3 months of age; 52 out of 59 mice; untreated 10%
Protocol: as §1
For this study, 3-month old PPT1-KO mice were divided into two groups. In the first group, 55 mice received no treatment (control). In the second group, 59 mice were treated with NtBuHA. The status of all mice was monitored on a daily basis.

## CC(C)(C)NO [NtBuHA, N-(tert-Butyl)hydroxylamine]
INCL fibroblasts
  toxicity / viability of INCL cells (MTT): non-toxic
PPT1-KO mice [1]
  GRODs in brain cells: markedly reduced number of GRODs
INCL lymphoblasts; then 500 μM H2O2 3 hours in presence of NtBuHA (FIG. 15)
  H2O2-induced apoptosis, pre- and co-treated cells: no alteration in apoptosis above the base level
INCL lymphoblasts; then 500 μM H2O2 3 hours without NtBuHA (FIG. 15)
  H2O2-induced apoptosis, pretreated cells: failed to induce apoptosis above the base level
PPT1-KO mice [2]
  mice still alive: 88%
